Patent EP0600950B1, “AMIDE TETRAZOLE ACAT INHIBITORS” (priority 1991, dated 1993)

Target: acyl-CoA: cholesterol acyltransferase (ACAT)
Test: in vitro ACAT inhibition, rabbit intestinal microsomes (IAI)
Type: biochemical
Details: radiolabeled cholesterol oleate formed from radiolabeled oleic acid
Source text: The test assesses the ability of a test compound to inhibit the acylation of cholesterol by oleic acid by measuring the amount of radiolabeled cholesterol oleate formed from radiolabeled oleic acid in a tissue preparation containing rabbit intestinal microsomes (designated IAI) or from rat liver microsomes (designated LAI).

Structure (SMILES): CCCCCCCCCCCCn1nnc(C(C(=O)Nc2c(OC)cc(OC)cc2OC)c2ccc(-c3ccccc3)cc2)n1 (racemic) [Example 54, (±)-α-([1,1'-biphenyl]-4-yl)-2-dodecyl-N-(2,4,6-trimethoxy-phenyl)-2H-tetrazole-5-acetamide]
- IC50: 0.22 µM

Structure (SMILES): CCCCCCCCCCCCn1nnc(C(C(=O)NC(C)(C)C)c2ccccc2)n1 (racemic) [Example 30, (±) N-(1,1-dimethylethyl)-2-dodecyl-α-phenyl-2H-tetrazole-5-acetamide]
- IC50: 0.77 µM

Structure (SMILES): CCCCCCCCCCCCn1nnc(C(C(=O)Nc2c(C(C)C)cccc2C(C)C)c2ccccn2)n1 (racemic) [Example 55, (±)-N-[2,6-Bis(1-methylethyl)phenyl]-2-dodecyl-α-2-pyridinyl-2H-tetrazole-5-acetamide]
- IC50: 0.026 µM

Structure (SMILES): CCCCCCCCCCCCn1nnc(CC(=O)Nc2c(OC)ncnc2OC)n1 [Example 3, N-(4,6-dimethoxy-5-pyrimidinyl)-2-dodecyl-2H-tetra-zole-5-acetamide]
- IC50: 0.007 µM

Structure (SMILES): CCCCCCCCCCCCn1nnc(C(C(=O)Nc2c(OC)cc(OC)cc2OC)c2ccc(N(C)C)cc2)n1 (racemic) [Example 51, (±)-α-[4-dimethylamino)phenyl]-2-dodecyl-N-(2,4,6-trimethoxy-phenyl)-2H-tetrazole-5-acetamide]
- IC50: 0.66 µM

Structure (SMILES): CCCCCCCCCCCCn1nnc(CC(=O)Nc2c(C)nn(C)c2C)n1 [Example 11, 2-dodecyl-N-(1,3,5-trimethyl-1H-pyrazol-4-yl)-2H-tetrazole-5-acetamide]
- IC50: 0.017 µM

Structure (SMILES): CCCCCCCCCCCCn1nnc(CCC(=O)Nc2c(C(C)C)cccc2C(C)C)n1 [Example 35, N-(2,6-Bis(1-methylethyl)phenyl)-2-dodecyl-2H-tetrazole-5-propanamide]
- IC50: 0.009 µM

Structure (SMILES): CCCCCCCCCCCCn1nnc(C(C(=O)Nc2c(OC)cc(OC)cc2OC)c2ccccc2)n1 (single isomer, unassigned; (+)) [Example 62, (+)-2-Dodecyl-α-phenyl-N-(2,4,6-trimethoxy-phenyl)-2H-tetrazole-5-acetamide]
- IC50: 0.014 µM

Structure (SMILES): CCCCCCCCCCCCn1nnc(CC(=O)Nc2c(C(C)C)cccc2C(C)C)n1 [Example 1, N-[2,6-Bis(1-methylethyl)phenyl]-2-dodecyl-2H-tetrazole-5-acetamide]
- IC50: 0.003 µM

Structure (SMILES): CCCCCCCCCCCCn1nnc(C(C(=O)Nc2c(OC)cc(OC)cc2OC)c2ccccc2)n1 (single isomer, unassigned; (-)) [Example 61, (-)-2-Dodecyl-α-phenyl-N-(2,4,6-trimethoxy-phenyl)-2H-tetrazole-5-acetamide]
- IC50: 0.31 µM

Structure (SMILES): CCCCCCCCCCCCn1nnc(C(C(=O)Nc2c(C)nn(C)c2C)c2ccccc2)n1 (racemic) [Example 19, (±)-2-dodecyl-α-phenyl-N-(1,3,5-trimethyl-1H-pyrazol-4-yl)-2H-tetrazole-5-acetamide]
- IC50: 0.014 µM

Structure (SMILES): CCCCCCCCCCCCn1nnnc1C(C(=O)Nc1c(C(C)C)cccc1C(C)C)c1ccccc1 (racemic) [Example 26, (±)-N-[2,6-Bis(1-methylethyl)phenyl]-1-dodecyl-α-phenyl-1H-tetrazole-5-acetamide]
- IC50: 0.079 µM

Structure (SMILES): CCCCCCCCCCCCCCn1nnc(CCC(=O)Nc2c(OC)cc(OC)cc2OC)n1 [Example 47, 2-tetradecyl-N-(2,4,6-tri-methoxyphenyl)-2H-tetrazole-5-propanamide]
- IC50: 2.1 µM

Structure (SMILES): CCCCCCCCCCCCn1nnc(C(C(=O)Nc2c(C(C)C)cccc2C(C)C)(c2ccccc2)c2ccccc2)n1 [Example 46, N-[2,6-Bis(1-methylethyl)phenyl]-2-dodecyl-α,α-diphenyl-2H-tetrazole-5-acetamide]
- IC50: 11 µM

Structure (SMILES): CCCCCCCCCCCCn1nnc(C(C(=O)Nc2c(OC)cc(OC)cc2OC)c2ccc(F)cc2)n1 (racemic) [Example 52, (±)-2-Dodecyl-α-(4-fluorophenyl)-N-(2,4,6-trimethoxyphenyl)-2H-tetrazole-5-acetamide]
- IC50: 0.036 µM

Structure (SMILES): CCCCCCCCCCCCn1nnc(CC(=O)Nc2ncccc2C)n1 [Example 7, 2-dodecyl-N-(3-methyl-2-pyridinyl)-2H-tetrazole-5-acetamide]
- IC50: 0.028 µM

Structure (SMILES): C=CCC(CC=C)(C(=O)Nc1c(OC)cc(OC)cc1OC)c1nnn(CCCCCCCCCCCC)n1 [Example 28, 2-Dodecyl-α,α'-(2-propenyl)-N-(2,4,6-trimethoxyphenyl)-2H-tetrazole-5-acetamide]
- IC50: 0.018 µM

Structure (SMILES): CCCCCCCCCCCCn1nnnc1CC(=O)Nc1c(OC)cc(OC)cc1OC [Example 6, 1-dodecyl-N-(2,4,6-trimethoxyphenyl)-1H-tetrazole-5-acetamide]
- IC50: 0.12 µM

Structure (SMILES): CCCCCCCCCCCCn1nnc(C(C)(C)C(=O)Nc2c(OC)cc(OC)cc2OC)n1 [Example 27, 2-Dodecyl-α,α-dimethyl-N-(2,4,6-trimethoxyphenyl)-2H-tetrazole-5-acetamide]
- IC50: 0.014 µM

Structure (SMILES): CCCCCCCCCCCCn1nnc(C(C(=O)Nc2ccc(F)cc2F)c2ccccc2)n1 (racemic) [Example 21, (±)-N-(2,4-difluoro-phenyl)-2-dodecyl-α-phenyl-2H-tetrazole-5-acetamide]
- IC50: 0.015 µM

Structure (SMILES): CCCCCCCCCCCCn1nnc(C(C(=O)Nc2c(C)ccc[n+]2[O-])c2ccccc2)n1 (racemic) [Example 24, (±)-2-Dodecyl-N-(3-methyl-2-pyridinyl)-2-phenyl-2H-tetrazole-5-acetamide, N-oxide]
- IC50: 0.041 µM

Structure (SMILES): CCCCCCCCCCCCn1nnc(C(C(=O)Nc2ccccc2)c2ccccc2)n1 (racemic) [Example 14, (±)-2-dodecyl-N,α-diphenyl-2H-tetrazole-5-acetamide]
- IC50: 0.091 µM

Structure (SMILES): CCCCCCCCCCCCn1nnc(C(C(=O)Nc2ccccn2)c2ccccc2)n1 (racemic) [Example 22, (±)-2-dodecyl-α-phenyl-N-2-pyridinyl-2H-tetrazole-5-acetamide]
- IC50: 0.091 µM

Structure (SMILES): CCCCCCCCCCCCn1nnc(CC(=O)Nc2c(OC)cc(OC)cc2OC)n1 [Example 5, 2-dodecyl-N-(2,4,6-trimethoxyphenyl)-2H-tetrazole-5-acetamide]
- IC50: 0.01 µM

Structure (SMILES): CCCCCCCCCCCCCCn1nnc(CC(=O)Nc2c(OC)cc(OC)cc2OC)n1 [Example 49, 2-tetradecyl-N-(2,4,6-tri-methoxyphenyl)-2H-tetrazole-5-acetamide]
- IC50: 0.015 µM

Structure (SMILES): CCCCCCCCCCCCCn1nnc(C(C)(C)C(=O)Nc2c(OC)cc(OC)cc2OC)n1 [Example 33, 2-Tridecyl-α,α-dimethyl-N-(2,4,6-trimethoxyphenyl)-2H-tetrazole-5-acetamide]
- IC50: 0.017 µM

Structure (SMILES): CCCCCCCCn1nnc(C(C(=O)Nc2c(OC)cc(OC)cc2OC)c2ccccc2)n1 (racemic) [Example 31, (±)-2-Octyl-α-phenyl-N-(2,4,6-trimethoxyphenyl)-2H-tetrazole-5-acetamide]
- IC50: 0.27 µM

Structure (SMILES): CCCCCCCCCCCCn1nnc(C(C(=O)Nc2c(OC)cc(OC)cc2OC)C2CCCCC2)n1 (racemic) [Example 60, (±)-2-Dodecyl-α-(cyclohexyl)-N-(2,4,6-trimethoxy-phenyl)-2H-tetrazole-5-acetamide]
- IC50: 0.028 µM

Structure (SMILES): CCCCCCCCCCCCn1nnc(C2(C(=O)Nc3c(OC)cc(OC)cc3OC)CCCC2)n1 [Example 29, 1-(2-Dodecyl-2H-tetrazol-5-yl)-N-(2,4,6-trimethoxyphenyl)cyclopentanecarboxamide]
- IC50: 0.01 µM

Structure (SMILES): CCCCCCCCCCCCCCCCn1nnc(C(C(=O)Nc2c(OC)cc(OC)cc2OC)c2ccccc2)n1 (racemic) [Example 32, (±) 2-Hexadecyl-α-phenyl-N-(2,4,6-trimethoxyphenyl)-2H-tetrazole-5-acetamide]
- IC50: 0.053 µM

Structure (SMILES): CCCCCCCCCCCCn1nnc(CCC(=O)Nc2ccc(F)cc2F)n1 [Example 36, N-(2,4-Difluorophenyl)-2-dodecyl-2H-tetrazole-5-propanamide]
- IC50: > 5 µM

Structure (SMILES): CCCCCCCCCCCCn1nnnc1CC(=O)Nc1c(C(C)C)cccc1C(C)C [Example 2, N-[2,6-Bis(1-methylethyl)phenyl]-1-dodecyl-1H-tetrazole-5-acetamide]
- IC50: 0.092 µM

Structure (SMILES): CCCCCCCCCCCCn1nnc(C(C(=O)Nc2c(C(C)C)cccc2C(C)C)c2ccccc2)n1 (racemic) [Example 15, (±)-N-[2,6-bis(1-methylethyl)phenyl]-2-dodecyl-α-phenyl-2H-tetrazole-5-acetamide]
- IC50: 0.008 µM

Structure (SMILES): CCCCCCCCCCCCn1nnc(CCC(=O)Nc2c(OC)cc(OC)cc2OC)n1 [Example 34, 2-Dodecyl-N-(2,4,6-trimethoxyphenyl)-2H-tetrazole-5-propanamide]
- IC50: 0.069 µM

Structure (SMILES): CCCCCCCCCCCCn1nnnc1CCC(=O)Nc1c(OC)cc(OC)cc1OC [Example 37, 1-Dodecyl-N-(2,4,6-trimethoxyphenyl)-1H-tetrazole-5-propanamide]
- IC50: 0.21 µM

Structure (SMILES): CCCCCCCCCCCCn1nnc(C(C)C(=O)Nc2c(OC)cc(OC)cc2OC)n1 (racemic) [Example 58, (±)-2-Dodecyl-α-(methyl)-N-(2,4,6-trimethoxy-phenyl)-2H-tetrazole-5-acetamide]
- IC50: 0.031 µM

Structure (SMILES): CCCCCCCCCCCCn1nnc(CC(=O)Nc2ccc(F)cc2F)n1 [Example 9, N-(2,4-difluoro-phenyl)-2-dodecyl-2H-tetrazole-5-acetamide]
- IC50: 0.28 µM

Structure (SMILES): CCCCCCCCCCCCn1nnc(C(C(=O)NC2CC2)c2ccccc2)n1 (racemic) [Example 20, (±)-N-cyclopropyl-2-dodecyl-α-phenyl-2H-tetrazole-5-acetamide]
- IC50: 0.047 µM

Structure (SMILES): CCCCCCCCCCCCn1nnc(C(C(=O)Nc2c(OC)ncnc2OC)c2ccccc2)n1 (racemic) [Example 16, (±)-N-(4,6-dimethoxy-5-pyrimidinyl)-2-dodecyl-α-phenyl-2H-tetrazole-5-acetamide]
- IC50: 0.008 µM

Structure (SMILES): CCCCCCCCCCCCn1nnc(C(C(=O)Nc2cnc3c(C)cc(C)cc3c2-c2ccccc2Cl)c2ccccc2)n1 (racemic) [Example 18, (±)-N-[4-(2-chlorophenyl)-6,8-dimethyl-3-quinolinyl]-2-dodecyl-α-phenyl-2H-tetrazole-5-acetamide]
- IC50: 0.028 µM

Structure (SMILES): CCCCCCCCCCCCn1nnc(C(C(=O)Nc2c(OC)cc(OC)cc2OC)c2ccccc2)n1 (racemic) [Example 13, (±) 2-Dodecyl-α-phenyl-N-(2,4,6-trimethoxyphenyl)-2H-tetrazole-5-acetamide]
- IC50: 0.009 µM
